In US20210308077A1, “COMBINATIONS INCLUDING BETA-ADRENORECEPTOR AGONISTS FOR TREATMENT OF PARKINSON`S DISEASE AND MOVEMENT DISORDERS” (The Brigham and Women`s Hospital, Inc., priority 2017, published 2021):

How the values were obtained:
[1] = tested on: α-synuclein protein and mRNA in substantia nigra; assay: Snca expression in substantia nigra, dose-finding mouse trial; type: in vivo; conditions: 10 mg/kg intraperitoneal, 24 hours, P<0.05
Procedure: The clenbuterol pharmacokinetic (PK) study was done in wild-type C57BL/6J male mice by ChemPartner Co., LTD in Shanghai. The study was done with 4 groups of four mice; one control group and three treatment groups with clenbuterol administered via intraperitoneal injection at dosages of 1, 5 and 10 mg/kg once every 24 hours. Following completion of the administration schedule, blood samples were collected at various time points (e.g. 0.25, 2, 8, and 24 hours), from the four mice per group per time point (final time point of 24 hours post injection). Mice were sacrificed following each blood collection and brains were removed and snap frozen. […] Plasma and brain samples were analyzed by LC-MS/MS for compound concentration at each of three concentrations and at each time point. Standard pharmacokinetic parameters (e.g. AUClast, AUCINF, terminal elimination half-life (t1/2), clearance, volume of distribution, time at maximum observed plasma concentration, etc.) were determined in both plasma and brain tissueby WinNonlin V 6.2 statistics software (Pharsight Corporation, California, USA) using a non-compartmental model. […]
Protein lysis buffer containing 320 mM sucrose, 5 mM NaF, 1 mM Na3VO4, 10 mM Tris (pH 7.4), 1 mM EGTA, and 1 mM EDTA was used for mice brain tissue lysis. […] Total protein concentrations were determined by BCA assay (Thermo Scientific) according to the manufacturer's instructions. […]

[2] = tested on: H3K27Ac; assay: immunoblot with antibody against H3K27Ac in SK-N-MC cells; type: cell-based, human; conditions: vs vehicle-treated cells
Procedure: For western blot analysis, protein samples (20 μg) were run on a 4-20% gradient SDS-polyacrylamide gel (Biorad) and transferred onto a polyvinylidene fluoride (PVDF) membrane filter (0.2 μm; Biorad) using an electroblot apparatus (Bio-Rad, Hercules, Calif.) at 100V for 1 h in transfer buffer (25 mM Tris-HCl, 192 mM glycine, 0.1% SDS, 20% (v/v) methanol). The membrane was incubated in blocking solution (50 mM Tris-HCl, 200 mM NaCl, 1 mM MgCl2, pH 7.4) containing 5% non-fat dry milk powder for 1 hour at room temperature. The membrane was processed through sequential incubations with primary antibody overnight at 4° C. followed by incubation with horseradish peroxidase-conjugated species specific secondary antibody at 1:250 dilutions (Thermo Scientific Pierce). Immunoreactive proteins on the membrane were visualized using the SuperSignal™ West Pico Chemiluminescent kit (Thermo Scientific Pierce). Scanned western blots were analyzed using ImageJ software, version 1.47. Pictures were inverted and usually the background signal from an empty lane was subtracted to obtain specific signals for each lane.

CC(C)(C)NCC(O)c1cc(Cl)c(N)c(Cl)c1 (stereo not drawn) [clenbuterol]
nigral α-synuclein mRNA levels [1]: significant reduction | nigral α-synuclein protein levels [1]: significant reduction | H3K27Ac levels (Western blotting) [2]: decreased
